Measurements published in patent US8901118B2, “Compounds and methods for kinase modulation, and indications therefor” (Plexxikon Inc., priority 2010, dated 2014).

Experiments:
[1] = biological target: CYP2C9 (Homo sapiens, UniProt P11712); assay: CYP2C9 inhibition (fluorescent substrate MFC); format: in vitro ADME; details: read-out: Cyp IC50 2C9
How it was run: (§1)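 10-pt 1:1 dilution series (from 100 mM DMSO stock) in NADPH regen cofactor mix, 5% MeCN; 10 min preincubation at 37 °C. Enzyme reaction 37 °C: 1A2 15 min, 2C9 45 min, 2C19/2D6 30 min. Fluorescence readout; IC50 fit.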

[2] = biological target: T1, CYP1A2 (Homo sapiens, UniProt P05177); assay: CYP1A2 inhibition (fluorescent substrate CEC); format: in vitro ADME; details: read-out: Cyp IC50 1A2
T1 sequence (P05177 1-516): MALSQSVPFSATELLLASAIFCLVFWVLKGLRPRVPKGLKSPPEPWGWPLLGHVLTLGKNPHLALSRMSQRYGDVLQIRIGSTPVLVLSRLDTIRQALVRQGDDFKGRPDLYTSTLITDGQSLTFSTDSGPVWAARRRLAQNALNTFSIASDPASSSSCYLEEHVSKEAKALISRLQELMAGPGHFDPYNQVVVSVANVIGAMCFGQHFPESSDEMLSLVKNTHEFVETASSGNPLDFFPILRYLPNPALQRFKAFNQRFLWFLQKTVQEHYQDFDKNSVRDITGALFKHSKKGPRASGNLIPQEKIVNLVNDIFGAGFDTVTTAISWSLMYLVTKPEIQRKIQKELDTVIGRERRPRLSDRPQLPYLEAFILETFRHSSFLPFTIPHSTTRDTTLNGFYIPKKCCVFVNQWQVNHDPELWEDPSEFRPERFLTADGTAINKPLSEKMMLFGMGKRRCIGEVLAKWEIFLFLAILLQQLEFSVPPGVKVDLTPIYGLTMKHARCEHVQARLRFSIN
How it was run: as §1

[3] = biological target: CYP2D6 (Homo sapiens, UniProt P10635); assay: CYP2D6 inhibition (fluorescent substrate AMMC); format: in vitro ADME; details: read-out: Cyp IC50 2D6
Sequence of CYP2D6 (P10635 whole entry): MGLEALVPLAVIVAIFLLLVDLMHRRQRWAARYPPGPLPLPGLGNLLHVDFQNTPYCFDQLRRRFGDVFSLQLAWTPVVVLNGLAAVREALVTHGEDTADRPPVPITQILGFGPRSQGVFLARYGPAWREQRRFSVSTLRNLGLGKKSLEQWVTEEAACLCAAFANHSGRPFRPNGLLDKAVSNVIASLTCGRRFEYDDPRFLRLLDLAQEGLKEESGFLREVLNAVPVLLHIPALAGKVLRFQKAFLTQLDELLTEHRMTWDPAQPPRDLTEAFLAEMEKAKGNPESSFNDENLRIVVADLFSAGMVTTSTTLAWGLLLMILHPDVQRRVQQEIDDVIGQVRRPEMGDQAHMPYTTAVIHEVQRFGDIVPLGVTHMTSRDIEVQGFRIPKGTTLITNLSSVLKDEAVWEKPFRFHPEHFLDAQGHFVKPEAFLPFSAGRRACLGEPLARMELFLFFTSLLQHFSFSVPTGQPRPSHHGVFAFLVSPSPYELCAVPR
How it was run: as §1

[4] = test system: SKNSH cells; assay: SKNSH (human neuroblastoma) cell proliferation assay (ATPlite); format: cell-based; details: SK-N-SH, read-out: Inhibition of Cell Proliferation IC50, SKNSH
How it was run: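 Fms/Trk inhibitor efficacy was tested by proliferation of SKNSH neuroblastoma cells. After 3 days of compound exposure at 37° C. in 5% CO2, 20 μL per well of ATPlite 1 step reagent was added, plates sat 10 minutes at room temperature, and luminescence, proportional to cell number, was read on a Safire reader to derive IC50.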

Sequence of CYP2C9 (P11712 whole entry): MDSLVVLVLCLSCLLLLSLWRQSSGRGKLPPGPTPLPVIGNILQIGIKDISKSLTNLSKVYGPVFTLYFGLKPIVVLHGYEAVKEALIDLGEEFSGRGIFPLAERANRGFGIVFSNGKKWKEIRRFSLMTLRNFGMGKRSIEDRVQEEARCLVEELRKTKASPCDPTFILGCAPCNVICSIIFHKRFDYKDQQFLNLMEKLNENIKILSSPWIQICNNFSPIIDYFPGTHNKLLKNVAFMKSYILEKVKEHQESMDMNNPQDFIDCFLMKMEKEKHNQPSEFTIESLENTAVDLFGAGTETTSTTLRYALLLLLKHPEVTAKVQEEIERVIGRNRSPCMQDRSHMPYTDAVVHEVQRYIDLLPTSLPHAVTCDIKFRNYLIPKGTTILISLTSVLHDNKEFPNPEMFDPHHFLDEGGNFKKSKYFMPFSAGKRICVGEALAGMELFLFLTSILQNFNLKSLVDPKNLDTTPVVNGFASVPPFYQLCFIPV

Compound Cc1cnc2[nH]cc(Cc3ccc(NC4CCCCC4)nc3F)c2c1 [Compound P-3008, cyclohexyl-[6-fluoro-5-(5-methyl-1H-pyrrolo[2,3-b]pyridin-3-ylmethyl)-pyridin-2-yl]-amine] has an IC50 [1] of 5 to 10 µM, an IC50 [2] of over 10 µM and an IC50 [3] of over 10 µM.
Fc1nc(Nc2ccc(C3CC3)nc2)ccc1Cc1c[nH]c2ncnc(C3CC3)c12 [Compound P-4041, (6-Cyclopropyl-pyridin-3-yl)-[5-(4-cyclopropyl-7H-pyrrolo[2,3-d]pyrimidin-5-ylmethyl)-6-fluoro-pyridin-2-yl]-amine] showed an IC50 [1] of 5 to 10 µM, an IC50 [2] of 5 to 10 µM and an IC50 [3] of over 10 µM.
Compound Nc1ncnc2[nH]cc(C(=O)c3ccc(NC4CCC(F)(F)CC4)nc3Cl)c12 [Compound P-4046, (4-amino-7H-pyrrolo[2,3-d]pyrimidin-5-yl)-[2-chloro-6-[(4,4-difluorocyclohexyl)amino]-3-pyridyl]methanone] has an IC50 [4] of under 10 µM.
For CC(C)=CNc1ncnc2[nH]cc(C(=O)c3ccc(NC4CCC(F)(F)CC4)nc3Cl)c12 [Compound P-4047, [2-chloro-6-[(4,4-difluorocyclohexyl)amino]-3-pyridyl]-[4-(2-methylprop-1-enylamino)-7H-pyrrolo[2,3-d]pyrimidin-5-yl]methanone], the IC50 [1] was over 10 µM, the IC50 [2] was over 10 µM and the IC50 [3] was over 10 µM.
Compound Nc1ncnc2[nH]cc(C(=O)c3ccc(Nc4ccc(C5CC5)nc4)nc3F)c12 [Compound P-4048, (4-amino-7H-pyrrolo[2,3-d]pyrimidin-5-yl)-[6-[(6-cyclopropyl-3-pyridyl)amino]-2-fluoro-3-pyridyl]methanone] has an IC50 [4] of under 1 µM, an IC50 [1] of over 10 µM and an IC50 [2] of over 10 µM. For the same compound, the IC50 [3] was over 10 µM.
For CC(C)(O)CNc1ncnc2[nH]cc(C(=O)c3ccc(Nc4ccc(C5CC5)nc4)nc3F)c12 [Compound P-4049, [6-[(6-cyclopropyl-3-pyridyl)amino]-2-fluoro-3-pyridyl]-[4-[(2-hydroxy-2-methyl-propyl)amino]-7H-pyrrolo[2,3-d]pyrimidin-5-yl]methanone], the IC50 [4] was under 1 µM, the IC50 [1] was 5 to 10 µM and the IC50 [2] was over 10 µM. The IC50 [3] was over 10 µM.
Work on CCNc1ncnc2[nH]cc(C(=O)c3ccc(NC4CCC(F)(F)CC4)nc3Cl)c12 [Compound P-4050, [2-chloro-6-[(4,4-difluorocyclohexyl)amino]-3-pyridyl]-[4-(ethylamino)-7H-pyrrolo[2,3-d]pyrimidin-5-yl]methanone] yielded an IC50 [4] of under 1 µM, an IC50 [1] of over 10 µM and an IC50 [2] of over 10 µM. For the same compound, the IC50 [3] was over 10 µM.
CCNc1ncnc2[nH]cc(C(=O)c3cnc(NC4CCC(F)(F)CC4)c(F)c3)c12 [Compound P-4051, [6-[(4,4-difluorocyclohexyl)amino]-5-fluoro-3-pyridyl]-[4-(ethylamino)-7H-pyrrolo[2,3-d]pyrimidin-5-yl]methanone] was tested, and the IC50 [4] was under 1 µM, the IC50 [1] was over 10 µM and the IC50 [2] was over 10 µM. For the same compound, the IC50 [3] was over 10 µM.
With O=C(c1cnc(NC2CCC(F)(F)CC2)c(F)c1)c1c[nH]c2ncnc(NCC(F)(F)F)c12 [Compound P-4052, [6-[(4,4-difluorocyclohexyl)amino]-5-fluoro-3-pyridyl]-[4-(2,2,2-trifluoroethylamino)-7H-pyrrolo[2,3-d]pyrimidin-5-yl]methanone] the IC50 [4] was over 1 µM, the IC50 [1] was over 10 µM and the IC50 [2] was over 10 µM. It also gave an IC50 [3] of over 10 µM.
Work on O=C(c1cnc(NC2CCC(F)(F)CC2)c(F)c1)c1c[nH]c2ncnc(NC3CC3)c12 [Compound P-4053, [4-(cyclopropylamino)-7H-pyrrolo[2,3-d]pyrimidin-5-yl]-[6-[(4,4-difluorocyclohexyl)amino]-5-fluoro-3-pyridyl]methanone] yielded an IC50 [4] of under 1 µM, an IC50 [1] of over 10 µM and an IC50 [2] of over 10 µM. For the same compound, the IC50 [3] was over 10 µM.
CNc1ncnc2[nH]cc(C(=O)c3cnc(NC4CCC(F)(F)CC4)c(F)c3)c12 [Compound P-4054, [6-[(4,4-difluorocyclohexyl)amino]-5-fluoro-3-pyridyl]-[4-(methylamino)-7H-pyrrolo[2,3-d]pyrimidin-5-yl]methanone] gave an IC50 [4] of under 10 µM, an IC50 [1] of over 10 µM and an IC50 [2] of over 10 µM. It also gave an IC50 [3] of over 10 µM.
